{"source": "patent US20200171056A1", "about": "“SULFONYLUREA COMPOUNDS IN THE TREATMENT OF DISEASE ASSOCIATED WITH UV-INDUCED DAMAGE” (CeMM - Forschungszentrum für Molekulare Medizin GmbH, priority 2017, published 2020)", "type_in_all_cases": "cell-based, human", "key": {"ΔXPA cells [1]": {"tested_on": "ΔXPA cells", "assay": "Long-term colony formation assay after UV irradiation", "conditions": "0.5 mM acetohexamide for 6 hours, then UV; 10 days in culture (FIG. 1E)", "from_the_text": "(§1) A. Schematic representation of the experimental setup used to perform the high-throughput drug screen, where drugs were used at five-times maximal plasma concentration (CLOUD; CeMM library of unique drugs). B. Bubble plot displaying the drugs used plotted against cell viability. Light grey bubbles indicate wildtype (WT) cells, dark grey bubbles indicate XPA-deficient cells (ΔXPA). […] C. Chemical structure of acetohexamide. D. Dose-response curve of WT and ΔXPA cells treated with or without 0.5 mM acetohexamide for 6 hours, followed by UV irradiation. Survival was assessed after 3 days, using CellTiter-Glo. […] Error bars indicate SEM (n=3). E. Colony formation using the same conditions indicated in (D), where cells were kept in culture for 10 days following UV irradiation, following which they were fixed and stained.\nCells were treated with UV at different doses with or without drug pre-treatment and then seeded into 6-well plates, at a density of 1,000 cells/well, in duplicates for 2 weeks until visible colonies were formed. Then, the medium was removed, colonies were washed with PBS and fixed using 3.7% paraformaldehyde (PFA) for 1 hour. Subsequently, the PFA was removed and colonies were stained with 0.1% crystal violet in 5% ethanol solution for 1 hour. Next, the staining solution was removed and the wells were washed, imaged and quantified using CellProfiler."}, "[2]": {"tested_on": "MUTYH-deficient (ΔMUTYH) cells", "assay": "Survival of MUTYH-deficient cells after UV irradiation", "conditions": "pre-incubation with 0.5 mM acetohexamide; 3 days (FIG. 3B)", "from_the_text": "FIG. 3. Loss of MUTYH mimics acetohexamide function A. Bubble plot displaying the percentage of rescue, defined as the difference in survival of a given cell line treated with acetohexamide compared to untreated, following UV irradiation. The light grey, dark grey bubbles highlight ΔMUTYH, ΔXPA […], and black bubbles indicate the rest of the knockout cell lines and WT HAP1. The size of the bubbles indicates the significance as log10 (p-value). BER: base excision repair; NER: nucleotide excision repair; DSBR; double-strand break repair; MMR: mis-match repair; FA: Fanconi aneamia; DR; direct reversal; TLS; translesion synthesis. B. Survival of WT and MUTYH-deficient (ΔMUTYH) cells with or without 0.5 mM acetohexamide treatment, followed by UV irradiation, as assessed after 3 days using CellTitre-Glo. Loss of MUTYH protein was confirmed by immunoblotting using an anti-MUTYH antibody. ACTIN was used as a loading control. C. Deletion of MUTYH in WT HAP1 or an XPA-deficient background was confirmed by immunoblotting using an anti-MUTYH antibody. TUBULIN was used as a loading control. […]\nFor UV irradiation, cells were washed with PBS, trypsinized, counted and distributed in equal number then irradiated with different doses of UV as indicated. […] After 72 hours, survival was measured using Cell Titer-Glo (Promega). […]"}, "WT and ΔXPA cells": {"tested_on": "WT and ΔXPA cells", "assay": "Cell cycle analysis (propidium iodide, FACS)", "conditions": "0.5 mM for 6 hours, WT vs ΔXPA (FIG. 8A)", "description": "A. WT and ΔXPA cells were either treated with DMSO or 0.5 mM acetohexamide for 6 hours. Cell cycle profiles were determined using propidium iodide (P1) staining followed by FACS analysis. B-D. Survival of WT HAP1 cells treated with either DMSO or 0.5 mM acetohexamide for 6 hours, followed by exposure to the indicated DNA damaging agents (MMC: mitomycin C; HU: hydroxyl urea; MMS: methyl methanesulfonate). Survival was assessed after 3 days using CellTitre-Glo. E. Cell viability of WT cells treated either with 0.5 mM acetohexamide or 30 μM N-acetylcysteine (NAC) for 6 hours, followed by 30 J/M^2 UV exposure.\nCells were treated with either DMSO or acetohexamide as indicated. Cell cycle stages were identified using propidium iodide (PI) staining. Briefly, cells were harvested, resuspended in PBS and fixed overnight with cold 70% ethanol. After centrifugation, ethanol was removed and cells were resuspended in PBS containing 1 μg/mL RNase A and […]. Finally, cells were analyzed on a FACScalibur flow cytometer. Following cell acquisition, analysis was performed using FlowJo software (Tree Star)."}, "[3]": {"tested_on": "XPA^Δ/Δ patient-derived cells", "assay": "Colony formation of XPA patient-derived fibroblasts after UV irradiation", "conditions": "0.5 mM acetohexamide for 6 hours, then UV; 10 days (FIG. 2B)", "description": "A. Dose-response curve of WT and ΔXPA cells treated with or without 0.5 mM acetohexamide for 6 hours, followed by illudin S treatment. Survival was assessed after 3 days using CellTiter-Glo. B. Colony formation of WT fibroblasts (BJ) and XPA-patient derived fibroblasts (XPA^Δ/Δ) treated with or without 0.5 mM acetohexamide for 6 hours, followed by UV irradiation (as indicated) and then kept in culture for 10 days. C. WT BJ and XPA^Δ/Δ fibroblastoid cells were treated with 0.5 mM acetohexamide for 6 hours, irradiated with 15 J/M^2 and then fixed and immunostained with an anti-cyclobutane pyrimidine dimer (CPD) antibody at the indicated times. Nuclear DNA was counterstained with DAPI. Scale bar, 10 μm. D. Scatter plot displaying the quantification of CPD intensities per nucleus of WT and XPA^Δ/Δ cells in the presence or absence of 0.5 mM acetohexamide, of more than 100 cells. Red lines within each column represent median intensities. A.u.=arbitrary unit.\nHAP1 cells were cultured in Iscove's Modified Dulbecco's Medium (Gibco). […]\nCells were treated with UV at different doses with or without drug pre-treatment and then seeded into 6-well plates, at a density of 1,000 cells/well, in duplicates for 2 weeks until visible colonies were formed. […] Next, the staining solution was removed and the wells were washed, imaged and quantified using CellProfiler."}, "ΔXPA cells [4]": {"tested_on": "ΔXPA cells", "assay": "Short-term survival after UV irradiation (CellTiter-Glo)", "conditions": "0.5 mM acetohexamide for 6 hours, then UV; survival after 3 days (FIG. 1D)", "from_the_text": "as §1\nA-C. Cell viability of ΔXPA cells treated with different concentrations of acetohexamide (aceto), gliclazide (GLC) and glimepiride (GLM) for 6 hours, followed by 10 J/M^2 of UV irradiation. D. Survival of WT and ΔXPA cells treated with or without 50 μM glibenclamide for 6 hours, followed by UV exposure. Survival was assessed after 3 days using CellTitre-Glo. E. Cell viability of ΔXPA cells treated with 10 μM of different derivatives of acetohexamide for 6 hours, followed by UV irradiation with 5 J/M^2.\nFor UV irradiation, cells were washed with PBS, trypsinized, counted and distributed in equal number then irradiated with different doses of UV as indicated. Finally, 1,000 cells were re-distributed into 96 well plates. After 72 hours, survival was measured using Cell Titer-Glo (Promega). Cells were irradiated with UVC using the UVP CX-2000 device (254 nm, Fisher Scientific)."}}, "data": [{"smiles": "CC(=O)c1ccc(S(=O)(=O)NC(=O)NC2CCCCC2)cc1", "note": "[acetohexamide]", "values": [{"measurement": "UV sensitivity of ΔXPA cells, long-term colony formation assay", "setting": "ΔXPA cells [1]", "result": "alleviated the UV sensitivity of ΔXPA cells almost to the level of wildtype cells"}, {"measurement": "survival of ΔMUTYH cells after UV", "setting": "[2]", "result": "did not have a noticeable effect on survival"}, {"measurement": "cell cycle profiles", "setting": "WT and ΔXPA cells", "result": "no difference between wildtype or ΔXPA cells upon acetohexamide treatment"}, {"measurement": "UV-induced cell death of XPA^Δ/Δ patient-derived cells", "setting": "[3]", "result": "could alleviate UV-induced cell death of XPA^Δ/Δ patient-derived cells"}, {"measurement": "UV sensitivity of ΔXPA cells, short-term dose response assay", "setting": "ΔXPA cells [4]", "result": "alleviated the UV sensitivity of ΔXPA cells almost to the level of wildtype cells"}]}]}
